Measurements as given in US12559784B2 (priority 2023, dated 2026).
Values joined by “and” are separate entries in the source; they are usually repeats but may differ in a detail not shown here. Identical values can stand only once. Like-named read-outs stand apart in the source and are kept apart here.

Assays:
skin = details: cited from earlier work
alkaline phosphatase [1] = assay type: biochemical
Description: New stocks were made the of the 1:100 alkaline phosphatase reaction reagents.
The conditions included: 1:100 dilution of alkaline phosphatase reaction reagent with two solvents (buffered saline and ethanol), dosing in 0.5 mL microcentrifuge tubes with 20 μL of chemical added to 180 μL of reaction reagent, and incubating with p-Nitrophenyl phosphate disodium salt (PNPP) substrate for 1-hour.

alkaline phosphatase [2] = assay type: biochemical; details: 3-hour exposure; 10 μL into 90 μL
porcine skin = test system: porcine skin
Description: Our initial studies involved using fresh and frozen porcine skin “buttons”. These buttons were punched out of porcine skin (Spear Products, Cooopersburg, PA) using a […] biopsy punch tool. Three different kinds of skin buttons were prepared from fresh porcine skin, frozen porcine skin, and frozen porcine skin with the fatty layer removed. […] The next day, the tubes were taken out and vortexed and 500 μL of the solution was aliquoted into cuvettes to read at three different optical density wavelengths (OD190, OD290, OD300) to evaluate the best response.
Skin Preparation • 1. Thaw 2 pieces of frozen porcine skin • 2. Punch out buttons: 24 buttons in each tube filled with 40 mL PB S-Azide 96-well plate Preparation • 1. Plate layout for dosing:
Procedure • 1. Dose each tissue with 140 μL of test chemical • 2. […] Take out of incubator and vortex pulse 3× • 2. Aliquot 500 μL to cuvette and read results at OD190, OD290, and OD300
There were three readings done at an optical density of 190, 290, and 300 nm to evaluate the best response. […] To address the variable exposure conditions, our next studies involved placing a larger porcine skin section into a holder that exposes only the epidermis side with no potential for test chemical exposure from the backside or through the sides.

phosphatase = assay type: biochemical, porcine; details: for percent of phosphatase measured (optical density compared to the naïve condition), average: average of two readings; for percent of phosphatase measured (optical density compared to the naïve condition): single readings
Description: Our next studies involved applying the test substance (500 μL) directly to the epidermis side of previously frozen porcine skin (Spear Products, Coopersburg, PA) that is placed in a holder that only exposes the epidermis side for 30 minutes, adding phosphate buffered saline (PBS) with added sodium azide (metabolic inhibitor that ensure no viable tissue), then aliquoting into cuvettes to read at an optical density of 300 nm. […] So, at the end of the initial studies described above, almost out of frustration, we tried to probe for released phosphatase activity using p-Nitrophenyl phosphate disodium salt (PNPP; Sigma Aldrich, St. Louis, MO) substrate solution to detect any presence of phosphatase.
Preparation • 1. Thaw 2 pieces of frozen porcine skin • a. Punch out as many skin discs and mount in holders • 2. Label cuvettes (3 for each chemical) Procedure • 1. Add 500 μL of test chemical to holder; incubate at room temperate for 30 minutes • 2. After 30 minutes, add 2 mL of PBS-Azide to both the holder containing the test chemical; forcefully pipette and re-pipette 10 times • 3. From the holder, aliquot 400 μL into 3 cuvettes; forcefully pipette and re-pipette 3 times before dispensing into cuvettes Reading Results • 1. Measure at OD300 for all cuvettes
Skin corrosion by GHS Category 1 dermal corrosive chemicals results in the disintegration of the epidermis into the dermis.

alkaline phosphatase [3] = test: Alkaline phosphatase experiment, third week: with and without discs; assay type: biochemical
From the text: Our next study focused on an in vitro method of detecting the potential of dermal corrosives to inhibit nonspecific phosphatases that may be released from the skin. We decided to test pure […] instead of relying on endogenous skin phosphatase. Alkaline phosphatase (Sigma Aldrich, St. Louis, MO) was purchased and suspended to make the reaction reagent (10,000 units). […] We note that the ratio used was 0.1 g/ml or 10% chemical—which is far in excess of any pharmaceutical applications. We further note that pharmaceutical enzyme inhibition tests, studies an use involve highly specific active site binding and these assays are conducted at ratios of micrograms-femtograms per ml. These studies are done at these ranges because these are the realistic concentrations for drug applications and therapeutics. […] So when a 50 Kg human consumes the tables, the tissues will be exposed at a 5 mg/50 kg=0.1 mg/kg=0.0000001 g/ml.
Next two quantitative methods were evaluated: 1) using the discs parts from our OptiSafe™ test method and 2) directly into the 24-well plate.
Preparation • 1. Alkaline phosphatase reaction reagent • a. Take 1 vial of AP, add 1 mL of PBS, mix by pipette/re-pipette 10 times • b. To a 50 mL conical tube, add 1 mL of the AP solution prepared above and 40 mL of PBS • 2. Prepare two 24-well plates (1 with discs, 1 without discs) • 3. […] Aliquot 200 μL PNPP and PBS Procedure • 1. Plate 1 (No Discs) • a. Add 1.25 mL from the prepared PBS-AP conical tube to each well (11 wells) • b. Add 100 μL of the test material to the well, mix with the same pipette tip, dispose and repeat for the rest of the test materials • c. Wrap the plate in saran wrap and place into the container • 2. Plate 2 (Discs) • a. Configure the 11 discs in the plate so the plate cover is stable • b. Add 1.25 mL from the prepared PBS-AP conical tube to each well (11 wells) • c. Add 100 μL of the test material to the center of the disc and repeat for the rest of the test materials • d. Put the plate cover on and place into the container • 3. […] Incubate for 1 hour Reading Results • 1. Measure at OD405

[4] = skin, chemical lists of the experiments
[5] = frozen porcine skin with fat layer removed, R 1 and 2
[6] = fresh porcine skin, 140 μL test chemical, R 1 and 2, >3A = outside readable range

SMILES	A2 - Results AVG (alkaline phosphatase [1])	A2 - Results R1 (alkaline phosphatase [1])	A2 - Results R3 (alkaline phosphatase [1])	percent of phosphatase measured (optical density compared to the naïve condition), average (phosphatase) [%]	percent of phosphatase measured (optical density compared to the naïve condition) (phosphatase)	further results
CC/C=C\CC1=C(C)CCC1=O	2.527	2.405	2.704	–	–	in vivo GHS (skin; rabbit, in vivo): Cat. 2
CC(C)=CCC/C(C)=C/CO	1.894	1.876	1.956	–	–	in vivo GHS (skin; [4]): Cat. 2
C=CCCC=C [1,5-Hexadiene]	2.717	2.692	2.693	–	–	OD405 reading, ethanol solvent, 10 μL dose, 1-hour PNPP (FIG. 7B) (alkaline phosphatase [2]): 2.947; OD405 reading, ethanol solvent, 10 μL dose, 30-minute PNPP (FIG. 7A) (alkaline phosphatase [2]): 1.702
CCCCCBr [1-Bromopentane]	2.686	2.590	2.598	–	–	in vivo GHS (skin; [4]): Cat. 2
CCCCCCCCCCO [1-Decanol]	2.373	2.205	2.472	–	–	in vivo GHS (skin; rabbit, in vivo): Cat. 2
CC(C)(O)CCc1ccccc1 [2-Methyl-4-phenyl-2-butanol]	–	–	–	99.3	98.6% and 100.0%	OD290 (porcine skin; fresh porcine skin, R 1 and 2): 0.339 and 0.426; OD300 (porcine skin; fresh porcine skin, R 1 and 2): 0.272 and 0.371; OD190 (porcine skin; [5]): 0.215 and 0.322; OD290 (porcine skin; [5]): 0.079 and 0.094; OD300 (porcine skin; [5]): 0.026 and 0.052; OD190 (porcine skin; frozen porcine skin, R 1 and 2): 0.338 and 0.362; OD290 (porcine skin; frozen porcine skin, R 1 and 2): 0.496 and 0.637; OD300 (porcine skin; frozen porcine skin, R 1 and 2): 0.342 and 0.497; Corrosive (skin; Yes/No): No
CC(C)(C)c1ccccc1O [2-tert-Butylphenol]	2.615	2.829	2.448	–	–	–
BrCCc1ccccc1 [(2-Bromoethyl)benzene]	–	–	–	100.0	100.0%	OD290 (porcine skin; fresh porcine skin, R 1 and 2): 0.125 and 0.133; OD300 (porcine skin; fresh porcine skin, R 1 and 2): 0.080 and 0.094; OD190 (porcine skin; [5]): 0.131 and 0.144; OD290 (porcine skin; [5]): 0.071; OD300 (porcine skin; [5]): 0.030 and 0.034; OD290 (porcine skin; frozen porcine skin, R 1 and 2): 0.279 and 0.254; OD300 (porcine skin; frozen porcine skin, R 1 and 2): 0.137 and 0.128
CC(=O)O [Acetic acid]	0.850	0.996	0.829	18.9	19.1% and 18.6%	raw optical density reading (PNPP), with discs (FIG. 3A) (alkaline phosphatase [3]; 405 nm, 100 μL chemical, 1.25 mL reaction reagent (10,000 units), 18 hours 37° C., PNPP 1 hour): 0.106 and 0.102 and 0.103; raw optical density reading (PNPP), without discs (FIG. 3B) (alkaline phosphatase [3]; 405 nm, 100 μL chemical, 1.25 mL reaction reagent, 18 hours 37° C., PNPP 1 hour): 0.104 and 0.129 and 0.101; OD190 (porcine skin; pig): >3A; Corrosive (skin; rabbit, in vivo): Yes; A1 - Results AVG (alkaline phosphatase [1]): 0.096; A1 - Results R1 (alkaline phosphatase [1]): 0.096; A1 - Results R3 (alkaline phosphatase [1]): 0.096
CC(=O)OCc1ccccc1 [Benzyl Acetate]	3.385	3.42	3.484	–	–	–
O=C(OCc1ccccc1)c1ccccc1O [Benzyl Salicylate]	3.317	3.345	3.333	–	–	–
CC(C=O)Cc1ccc(C(C)C)cc1 (stereo not shown) [Cyclamen aldehyde]	2.777	2.736	2.845	100.0	100.0%	OD290 (porcine skin; fresh porcine skin, R 1 and 2): 0.290; Corrosive (skin; Yes/No): No; in vivo GHS (skin; [4]): Cat. 2
NCCO [Ethanolamine]	–	–	–	19.9	20.1% and 19.6%	raw optical density reading (PNPP), with discs (FIG. 3A) (alkaline phosphatase [3]): 0.170 and 0.166 and 0.172; raw optical density reading (PNPP), without discs (FIG. 3B) (alkaline phosphatase [3]): 0.174 and 0.185 and 0.175; OD190 (porcine skin; [6]): >3A; OD290 (porcine skin; fresh porcine skin, R 1 and 2): 0.848 and 1.169; OD300 (porcine skin; fresh porcine skin, R 1 and 2): 0.711 and 1.044; OD190 (porcine skin; [5]): 0.761 and 0.800; OD290 (porcine skin; [5]): 0.168 and 0.093; OD290 (porcine skin; frozen porcine skin, R 1 and 2): 0.708 and 0.767; OD300 (porcine skin; frozen porcine skin, R 1 and 2): 0.524 and 0.598; Corrosive (skin; rabbit, in vivo): Yes
CC(CC=O)CCCC(C)(C)O (stereo not shown) [Hydroxycitronellal]	2.585	2.513	3.089	–	–	–
CC(C)O [Isopropanol]	2.528	2.294	2.389	–	–	–
CCCCCCCCCCCCCC(=O)OC(C)C [Isopropyl Myristate]	3.339	3.413	3.360	–	–	–
CCCCCCCCC=O [Nonyl aldehyde]	2.227	2.496	2.117	–	–	OD405 reading, ethanol solvent, 10 μL dose, 1-hour PNPP (FIG. 7B) (alkaline phosphatase [2]): 3.078; OD405 reading, ethanol solvent, 10 μL dose, 30-minute PNPP (FIG. 7A) (alkaline phosphatase [2]): 1.589; in vivo GHS (skin; [4]): Cat. 2
OCCc1ccccc1 [Phenylethyl alcohol]	3.303	3.342	3.287	–	–	–
OCCOCCOCCO [Triethylene glycol]	–	–	–	28.9	29.5% and 28.2%	Corrosive (skin; rabbit, in vivo): No
CC1=CCC(C(C)(C)O)CC1 (stereo not drawn) [alpha-Terpineol]	2.589	2.223	2.793	–	–	in vivo GHS (skin; rabbit, in vivo): Cat. 2
CCCSSCCC [di-n-Propyl disulfide]	2.472	2.649	2.368	69.9	68.1% and 71.6%	OD190 (porcine skin; [6]): 0.419 and 0.400; OD290 (porcine skin; fresh porcine skin, R 1 and 2): 0.139 and 0.137; OD300 (porcine skin; fresh porcine skin, R 1 and 2): 0.105 and 0.096; OD190 (porcine skin; [5]): 0.443 and 0.405; OD290 (porcine skin; [5]): 0.082 and 0.063; OD300 (porcine skin; [5]): 0.031 and 0.018; OD190 (porcine skin; frozen porcine skin, R 1 and 2): 0.314 and 0.396; OD290 (porcine skin; frozen porcine skin, R 1 and 2): 0.294 and 0.240; OD300 (porcine skin; frozen porcine skin, R 1 and 2): 0.161 and 0.119; Corrosive (skin; Yes/No): No; in vivo GHS (skin; [4]): Cat. 2
C=C(C)[C@@H]1CC=C(CO)CC1 [p-Metha-1,8-dien-7-ol]	2.793	2.757	2.868	–	–	in vivo GHS (skin; [4]): Cat. 2
